Laboratory results published in patent publication US9796711B2, “Substituted pyrazolo[3,4-b]pyridin-6-carboxylic acids and method of use” (AbbVie S.àr.l., priority 2015, dated 2017).

Target: T1, ΔF508-CFTR (Homo sapiens, UniProt P13569, DEL508-508)
T1 construct: host or cells: CFBE41o-, doxycycline-inducible
Experiment: CFTR cell surface levels using HRP-tagged ΔF508-CFTR expressing CFBE cells, in the presence of a co-corrector
Format: cell-based
Settings: HRP-tagged ΔF508-CFTR expressing CFBE cells, in the presence of 3 μM co-corrector; for EC50: read-out: EC50
Text: Measuring CFTR Cell Surface Levels Using HRP-Tagged AF508-CFTR Expressing CFBE Cells
The HRP-tagged AF508-CFTR cell assay measures the expression of CFTR-ΔF508 at the plasma membrane. CFTR-ΔF508 has a folding defect leading to absence of protein at the plasma membrane. This assay is used to evaluate the capacity of compounds to increase the expression of CFTR-ΔF508 at the plasma membrane. The CFTR-ΔF508 is tagged with HRP (horse radish peroxidase enzyme) within the ECL4 (Extracellular loop 4) of CFTR (Phuan, P.-W. et al. Synergy-based small-molecule screen using a human lung epithelial cell line yields AF508-CFTR correctors that augment VX-809 maximal efficacy. Mol. Pharmacol. 86, 42-51 (2014)). When HRP-tagged AF508-CFTR is present at the plasma membrane, the HRP enzyme activity can be measured. The amount of CFTR-ΔF508 that can be rescued to the plasma membrane is correlated with the amount of functional enzyme that can be measured.
There are several ways to measure the capacity of compounds to rescue CFTR-ΔF508 to the plasma membrane; either compounds are evaluated on their own and the impact on plasma membrane levels is measured or compounds are evaluated in combination with a co-corrector, i.e. a compound that rescues CFTR-ΔF508 to the plasma membrane but rescue can be enhanced by addition of compounds due to a complementary mode of action.
Activity of Compounds in Combination with Co-Corrector:
For this purpose doxycycline-inducible AF508-CFTR-HRP expressing CFBE4lo-cells (obtained from Gergely Lukacs, McGill University) were maintained in MEM (Minimum Essential Medium, Gibco; 31095) supplemented with 10% fetal bovine serum (Hyclone; SV30160.03) under puromycin (3 μg/mL) and G418 selection (0.2 mg/mL). For compound testing, cells were seeded at 4000 cells/well in white 384-well plates (Greiner; 781080) in 50 μL of medium containing 0.5 μg/mL doxycycline and incubated for 68 hours at 37° C., 5% CO2. On day four, 10 μL of test compounds diluted in PBS (phosphate buffered saline) were added to the plates at a final DMSO concentration of 0.1%. In order to measure compound synergy with a co-corrector, 3 μM co-corrector (3-[(2R,4R)-4-({[1-(2,2-difluoro-1,3-benzodioxol-5-yl)cyclopropyl]carbonyl}amino)-7-methoxy-3,4-dihydro-2H-chromen-2-yl]benzoic acid) was added along with test compounds. All compound plates contained negative controls (DMSO) and positive controls (3 μM co-corrector). Cell plates were incubated at 33° C., 5% CO2 for 20 hours. On day five, the cells were washed five times with phosphate-buffered saline, and HRP activity was assayed by the addition of 50 μL/well of HRP substrate (SuperSignal™ West Pico Chemiluminescent Substrate, Thermo Scientific; 34080). After incubation for 15 minutes in the dark, the chemiluminescence was measured using a plate reader (EnVision®, Perkin Elmer). Raw data were normalized to percentage activity values using the equation: 100×(Sample−Negative control)/(Positive control−Negative Control).

T1 sequence (P13569 with tags, fused parts or gaps DEL508-508): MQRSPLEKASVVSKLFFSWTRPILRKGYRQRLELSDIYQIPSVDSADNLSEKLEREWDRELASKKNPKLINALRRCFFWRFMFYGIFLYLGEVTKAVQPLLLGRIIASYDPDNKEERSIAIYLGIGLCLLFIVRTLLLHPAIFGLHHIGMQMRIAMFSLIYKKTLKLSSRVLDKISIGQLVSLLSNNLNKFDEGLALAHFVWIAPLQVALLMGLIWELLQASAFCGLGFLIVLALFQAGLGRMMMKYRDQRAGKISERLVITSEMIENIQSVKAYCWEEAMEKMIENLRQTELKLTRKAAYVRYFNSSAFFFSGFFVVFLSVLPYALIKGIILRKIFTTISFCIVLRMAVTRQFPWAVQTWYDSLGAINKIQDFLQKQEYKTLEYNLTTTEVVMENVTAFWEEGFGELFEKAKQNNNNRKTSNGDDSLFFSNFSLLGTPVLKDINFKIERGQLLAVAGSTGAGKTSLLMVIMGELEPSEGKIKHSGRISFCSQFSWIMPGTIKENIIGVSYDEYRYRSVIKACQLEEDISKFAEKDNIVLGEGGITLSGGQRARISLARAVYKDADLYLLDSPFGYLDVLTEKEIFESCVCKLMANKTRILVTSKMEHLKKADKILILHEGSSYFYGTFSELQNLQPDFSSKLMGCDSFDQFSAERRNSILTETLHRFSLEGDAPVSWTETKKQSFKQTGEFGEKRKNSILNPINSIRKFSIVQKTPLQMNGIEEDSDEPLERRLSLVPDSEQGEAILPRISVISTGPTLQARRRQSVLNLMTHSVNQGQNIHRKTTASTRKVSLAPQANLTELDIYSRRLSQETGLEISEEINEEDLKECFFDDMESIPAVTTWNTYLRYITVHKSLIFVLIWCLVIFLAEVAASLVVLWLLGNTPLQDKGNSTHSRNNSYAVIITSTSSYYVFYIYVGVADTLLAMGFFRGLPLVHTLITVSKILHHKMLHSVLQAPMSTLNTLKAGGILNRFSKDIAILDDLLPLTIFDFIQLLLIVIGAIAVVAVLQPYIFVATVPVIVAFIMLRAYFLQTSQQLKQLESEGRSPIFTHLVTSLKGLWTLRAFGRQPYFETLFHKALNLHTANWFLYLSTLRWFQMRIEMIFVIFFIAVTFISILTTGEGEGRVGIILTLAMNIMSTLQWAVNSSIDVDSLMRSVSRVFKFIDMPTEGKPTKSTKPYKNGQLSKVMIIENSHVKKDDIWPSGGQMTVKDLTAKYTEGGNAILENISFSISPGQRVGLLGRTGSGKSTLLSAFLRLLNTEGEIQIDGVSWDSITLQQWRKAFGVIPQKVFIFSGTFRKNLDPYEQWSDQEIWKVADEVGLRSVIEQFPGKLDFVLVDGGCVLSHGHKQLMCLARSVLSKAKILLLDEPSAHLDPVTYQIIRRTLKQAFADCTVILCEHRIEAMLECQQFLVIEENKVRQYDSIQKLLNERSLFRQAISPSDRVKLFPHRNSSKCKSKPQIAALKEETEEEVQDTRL

| Structure (SMILES) | % Activation | EC50 |
| --- | --- | --- |
| O=C(O)c1cc(N2CCS(=O)(=O)CC2)c2c(C3CCC3)nn(-c3ccccc3)c2n1 [compound 673, 3-cyclobutyl-4-(1,1-dioxo-1λ^6,4-thiazinan-4-yl)-1-phenyl-1H-pyrazolo[3,4-b]pyridine-6-carboxylic acid] | 163.25% | 3330 nM |
| Cc1nn(-c2ccccc2)c2nc(C(=O)O)cc(-c3ccc(N4CCC(C#N)CC4)cc3)c12 [compound 109, 4-[4-(4-cyanopiperidin-1-yl)phenyl]-3-methyl-1-phenyl-1H-pyrazolo[3,4-b]pyridine-6-carboxylic acid] | 398.15% | 752 nM |
| COc1cc(-n2nc(C3CCC3)c3c(N4CCC(N5CCOCC5)CC4)cc(C(=O)O)nc32)ccn1 [compound 816, 3-cyclobutyl-1-(2-methoxypyridin-4-yl)-4-[4-(morpholin-4-yl)piperidin-1-yl]-1H-pyrazolo[3,4-b]pyridine-6-carboxylic acid] | 359.9% | 67.6 nM |
| COCCN1CCN(C2CCN(c3cc(C(=O)O)nc4c3c(C(C)C)nn4-c3ccc(F)cc3)CC2)CC1 [compound 746, 1-(4-fluorophenyl)-4-{4-[4-(2-methoxyethyl)piperazin-1-yl]piperidin-1-yl}-3-(propan-2-yl)-1H-pyrazolo[3,4-b]pyridine-6-carboxylic acid] | 418.4% | 549 nM |
| O=C(O)c1cc(N2CC(N3CCC(N4CCOCC4)CC3)C2)c2c(C3CCC3)nn(-c3ccccc3)c2n1 [compound 725, 3-cyclobutyl-4-{3-[4-(morpholin-4-yl)piperidin-1-yl]azetidin-1-yl}-1-phenyl-1H-pyrazolo[3,4-b]pyridine-6-carboxylic acid] | 173.2% | 869 nM |
| O=C(O)c1cc(N2CCC(CCCN3CCCC3)CC2)c2c(C3CCC3)nn(-c3ccccc3)c2n1 [compound 733, 3-cyclobutyl-1-phenyl-4-{4-[3-(pyrrolidin-1-yl)propyl]piperidin-1-yl}-1H-pyrazolo[3,4-b]pyridine-6-carboxylic acid] | 396.9% | 85.1 nM |
| CCN(CC)CCCC1CCN(c2cc(C(=O)O)nc3c2c(C(C)C)nn3-c2ccc(F)cc2)CC1 [compound 747, 4-{4-[3-(diethylamino)propyl]piperidin-1-yl}-1-(4-fluorophenyl)-3-(propan-2-yl)-1H-pyrazolo[3,4-b]pyridine-6-carboxylic acid] | 475.3% | 1670 nM |
| CN1CCN(CCC2CCN(c3cc(C(=O)O)nc4c3c(C3CCC3)nn4-c3ccccc3)CC2)CC1 [compound 695, 3-cyclobutyl-4-{4-[2-(4-methylpiperazin-1-yl)ethyl]piperidin-1-yl}-1-phenyl-1H-pyrazolo[3,4-b]pyridine-6-carboxylic acid] | 385.5% | 119 nM |
| CN(CCN1CCOCC1)c1cc(C(=O)O)nc2c1c(C1CCC1)nn2-c1ccccc1 [compound 565, 3-cyclobutyl-4-{methyl[2-(morpholin-4-yl)ethyl]amino}-1-phenyl-1H-pyrazolo[3,4-b]pyridine-6-carboxylic acid] | 319.8% | 1930 nM |
| O=C(O)c1cc(OCC2CCOCC2)c2c(C3CCC3)nn(-c3ccc(F)cc3)c2n1 [compound 658, 3-cyclobutyl-1-(4-fluorophenyl)-4-[(oxan-4-yl)methoxy]-1H-pyrazolo[3,4-b]pyridine-6-carboxylic acid] | 345.9% | 455 nM |
| O=C(O)c1cc(N2CC3(CCCOC3)C2)c2c(C3CCC3)nn(-c3ccccc3)c2n1 [compound 720, 3-cyclobutyl-4-(6-oxa-2-azaspiro[3.5]nonan-2-yl)-1-phenyl-1H-pyrazolo[3,4-b]pyridine-6-carboxylic acid] | 263.1% | 356 nM |
| CCOCCN1CCN(C2CCN(c3cc(C(=O)O)nc4c3c(C3CCC3)nn4-c3ccccc3)CC2)CC1 [compound 729, 3-cyclobutyl-4-{4-[4-(2-ethoxyethyl)piperazin-1-yl]piperidin-1-yl}-1-phenyl-1H-pyrazolo[3,4-b]pyridine-6-carboxylic acid] | 530.4% | 1670 nM |
| CC(C)c1nn(-c2ccc(F)cc2)c2nc(C(=O)O)cc(N3CC[C@@H](O)[C@H](F)C3)c12 [compound 668, 4-[(3R,4R)-3-fluoro-4-hydroxypiperidin-1-yl]-1-(4-fluorophenyl)-3-(propan-2-yl)-1H-pyrazolo[3,4-b]pyridine-6-carboxylic acid] | 341.65% | 2360 nM |
| O=C(O)c1cc(N2CC(N3CCCC3)C2)c2c(C3CCC3)nn(-c3ccccc3)c2n1 [compound 680, 3-cyclobutyl-1-phenyl-4-[3-(pyrrolidin-1-yl)azetidin-1-yl]-1H-pyrazolo[3,4-b]pyridine-6-carboxylic acid] | 236.7% | 1360 nM |
| O=C(O)c1cc(N2CCCN(CC3CCCO3)CC2)c2c(C3CCC3)nn(-c3ccccc3)c2n1 (stereo not shown) [compound 572, 3-cyclobutyl-4-{4-[(oxolan-2-yl)methyl]-1,4-diazepan-1-yl}-1-phenyl-1H-pyrazolo[3,4-b]pyridine-6-carboxylic acid] | 330.8% | 1190 nM |
| O=C(O)c1cc(OC2CCC2)c2c(C3CCC3)nn(-c3ccccc3)c2n1 [compound 585, 3-cyclobutyl-4-(cyclobutyloxy)-1-phenyl-1H-pyrazolo[3,4-b]pyridine-6-carboxylic acid] | 245.3% | 2490 nM |
| C[C@@H]1CN(c2cc(C(=O)O)nc3c2c(C2CCC2)nn3C2CCCCC2)CCN1Cc1ccccc1 [compound 882, 4-[(3R)-4-benzyl-3-methylpiperazin-1-yl]-3-cyclobutyl-1-cyclohexyl-1H-pyrazolo[3,4-b]pyridine-6-carboxylic acid] | 363.85% | 372 nM |
| Cc1nn(C2CCCCC2)c2nc(C(=O)O)cc(-c3ccc(N4CCOCC4)cc3)c12 [compound 17, 1-cyclohexyl-3-methyl-4-[4-(morpholin-4-yl)phenyl]-1H-pyrazolo[3,4-b]pyridine-6-carboxylic acid] | 272.5% | 1140 nM |
| CN(CC1CCOCC1)c1cc(C(=O)O)nc2c1c(C1CCC1)nn2-c1ccccc1 [compound 554, 3-cyclobutyl-4-{methyl[(oxan-4-yl)methyl]amino}-1-phenyl-1H-pyrazolo[3,4-b]pyridine-6-carboxylic acid] | 365.83% | 1720 nM |
| CC(C)c1nn(-c2ccc(F)cc2)c2nc(C(=O)O)cc(NC(=O)C3CCOCC3)c12 [compound 664, 1-(4-fluorophenyl)-4-[(oxane-4-carbonyl)amino]-3-(propan-2-yl)-1H-pyrazolo[3,4-b]pyridine-6-carboxylic acid] | 120.6% | > 10000 nM |
| CC(C)c1nn(-c2ccc(F)cc2)c2nc(C(=O)O)cc(N3CCC(N(C)C)CC3)c12 [compound 660, 4-[4-(dimethylamino)piperidin-1-yl]-1-(4-fluorophenyl)-3-(propan-2-yl)-1H-pyrazolo[3,4-b]pyridine-6-carboxylic acid] | 284.47% | 3330 nM |
| CC(C)COC(=O)N1CCN(c2cc(C(=O)O)nc3c2c(C2CCC2)nn3-c2ccccc2)CC1 [compound 701, 3-cyclobutyl-4-{4-[(2-methylpropoxy)carbonyl]piperazin-1-yl}-1-phenyl-1H-pyrazolo[3,4-b]pyridine-6-carboxylic acid] | 498.5% | 36.1 nM |
| O=C(O)c1cc(N2CCC[C@@H](O)C2)c2c(C3CCC3)nn(-c3ccccc3)c2n1 [compound 706, 3-cyclobutyl-4-[(3R)-3-hydroxypiperidin-1-yl]-1-phenyl-1H-pyrazolo[3,4-b]pyridine-6-carboxylic acid] | 284.4% | 488 nM |
